Source: ChEMBL document CHEMBL5365396, “Design, synthesis and anti-tumor evaluation of plinabulin derivatives as potential agents targeting β-tubulin” (Bioorg Med Chem Lett, 2023)
Activity calls are given as the source filed them. No cut-off for these calls is given here.

Legend:
[1] = tested on: NCI-H460; test: Antiproliferative activity against human NCI-H460 cells assessed as cell growth inhibition by MTT assay; assay type: functional, cell-based
[2] = tested on: BXPC-3; test: Antiproliferative activity against human BXPC-3 cells assessed as cell growth inhibition by MTT assay; assay type: functional, cell-based
[3] = tested on: HCT-116; test: Antiproliferative activity against human HCT-116 cells assessed as cell growth inhibition by MTT assay; assay type: functional, cell-based
[4] = molecular target: T1, Tubulin beta (Homo sapiens) (UniProt P68371+Q9H4B7+Q13509+P04350+Q3ZCM7+P07437+Q13885+Q9BVA1+Q9BUF5+A6NNZ2); test: Induction of beta-tubulin depolymerization in human HCT-116 cells assessed as microtubule disruption at 10 nM incubated for 24 hrs by DAPI staining based immunofluorescence assay relative to control; assay type: cell-based
[5] = molecular target: T1, Tubulin beta (Homo sapiens); test: Induction of beta-tubulin depolymerization in human HCT-116 cells assessed as disruption of microtubule network by measuring abnormality in formation of spindle bodies at 10 nM measured after 24 hrs by DAPI staining based immunofluorescence assay; assay type: cell-based
[6] = tested on: HCT-116; test: Induction of cell cycle arrest in human HCT-116 cells assessed as accumulation of cells at G1 phase at 5 nM by propidium iodide staining based flow cytometry analysis (reference value: 37.85 %); assay type: functional
[7] = tested on: HCT-116; test: Induction of cell cycle arrest in human HCT-116 cells assessed as accumulation of cells at S phase at 10 nM by propidium iodide staining based flow cytometry analysis (reference value: 39.4 %); assay type: functional
[8] = tested on: HCT-116; test: Induction of apoptosis in human HCT-116 cells assessed as early apoptotic cells at 10 nM by Annexin-V-FITC and PI staining based flow cytometry (reference value: 3.20 %); assay type: functional
[9] = tested on: HCT-116; test: Induction of apoptosis in human HCT-116 cells assessed as increase in early apoptosis cells at 20 nM by Annexin-V-FITC and PI staining based flow cytometry analysis relative to control; assay type: functional
[10] = tested on: HCT-116; test: Induction of apoptosis in human HCT-116 cells assessed as late apoptotic cells at 5 nM by Annexin-V-FITC and PI staining based flow cytometry (reference value: 1.75 %); assay type: functional
[11] = tested on: HCT-116; test: Induction of apoptosis in human HCT-116 cells assessed as increase in late apoptosis cells at 20 nM by Annexin-V-FITC and PI staining based flow cytometry analysis relative to control; assay type: functional
[12] = Induction of apoptosis in human HCT-116 cells assessed as early apoptotic cells at 5 nM by Annexin-V-FITC and PI staining based flow cytometry (reference value: 3.20 %); assay type: functional
[13] = tested on: HCT-116; test: Induction of cell cycle arrest in human HCT-116 cells assessed as accumulation of cells at S phase at 5 nM by propidium iodide staining based flow cytometry analysis (reference value: 39.4 %); assay type: functional
[14] = tested on: HCT-116; test: Induction of cell cycle arrest in human HCT-116 cells assessed as accumulation of cells at G1 phase at 20 nM by propidium iodide staining based flow cytometry analysis (reference value: 37.85 %); assay type: functional
[15] = tested on: HCT-116; test: Induction of cell cycle arrest in human HCT-116 cells assessed as accumulation of cells at S phase at 20 nM by propidium iodide staining based flow cytometry analysis (reference value: 39.4 %); assay type: functional
[16] = tested on: HCT-116; test: Induction of cell cycle arrest in human HCT-116 cells assessed as increase in accumulation at G2/M phase at 5 nM by propidium iodide staining based flow cytometry relative to control; assay type: functional
[17] = tested on: HCT-116; test: Induction of cell cycle arrest in human HCT-116 cells assessed as accumulation of cells at G1 phase at 10 nM by propidium iodide staining based flow cytometry analysis (reference value: 37.85 %); assay type: functional
[18] = tested on: HCT-116; test: Induction of apoptosis in human HCT-116 cells assessed as late apoptotic cells at 10 nM by Annexin-V-FITC and PI based flow cytometry (reference value: 1.75 %); assay type: functional
[19] = tested on: HCT-116; test: Induction of cell cycle arrest in human HCT-116 cells assessed as increase in accumulation at G2/M phase at 10 nM by propidium iodide staining based flow cytometry relative to control; assay type: functional
[20] = tested on: HCT-116; test: Induction of cell cycle arrest in human HCT-116 cells assessed as increase in accumulation at G2/M phase by propidium iodide staining based flow cytometry; assay type: functional; details: dose 5-20 nM
[21] = tested on: HCT-116; test: Induction of cell cycle arrest in human HCT-116 cells assessed as increase in accumulation at G2/M phase at 20 nM by propidium iodide staining based flow cytometry relative to control; assay type: functional

SMILES | IC50 [1] [nM] | IC50 [2] [nM] | IC50 [3] [nM] | further results
CC(C)(C)c1[nH]cnc1/C=c1\[nH]c(=O)/c(=C/c2cccc(NC(=O)C3CCCCC3)c2)[nH]c1=O | 618 | 1020 | 1320 | –
CC(C)(C)c1[nH]cnc1/C=c1\[nH]c(=O)/c(=C/c2cccc(NC(=O)c3ccccc3)c2)[nH]c1=O | 936 | 398 | 47.6 | –
COc1ccc(C(=O)Nc2cccc(/C=c3\[nH]c(=O)/c(=C/c4nc[nH]c4C(C)(C)C)[nH]c3=O)c2)cc1 | 1170 | 1510 | 1040 | –
Cc1ccc(F)cc1C(=O)Nc1cccc(/C=c2\[nH]c(=O)/c(=C/c3nc[nH]c3C(C)(C)C)[nH]c2=O)c1 | 1310 | 1590 | 362 | –
CC(C)(C)c1[nH]cnc1/C=c1\[nH]c(=O)/c(=C/c2cc3ccccc3[nH]2)[nH]c1=O | 1390 | 2770 | 3310 | –
Cc1ccc(C(=O)Nc2cccc(/C=c3\[nH]c(=O)/c(=C/c4nc[nH]c4C(C)(C)C)[nH]c3=O)c2)c(C)c1 | 1280 | 2590 | 504 | –
CC(C)[C@H](CN)C(=O)Nc1cccc(/C=c2\[nH]c(=O)/c(=C/c3nc[nH]c3C(C)(C)C)[nH]c2=O)c1 (stereo in doubt) | 1430 | 31.4 | 31.3 | –
CC(C)(C)c1[nH]cnc1/C=c1\[nH]c(=O)/c(=C/c2cccc(NC(=O)C3CCC3)c2)[nH]c1=O | 1490 | 585 | 895 | –
CC(C)(C)c1[nH]cnc1/C=c1\[nH]c(=O)/c(=C/c2cccc(NC(=O)Cc3ccccc3)c2)[nH]c1=O | 1100 | 1700 | 474 | –
CC(C)(C)c1[nH]cnc1/C=c1\[nH]c(=O)/c(=C/c2cccc(NC(=O)c3cccc(C(=O)c4ccccc4)c3)c2)[nH]c1=O | > 5000 | 4460 | > 5000 | –
CC(C)(C)c1[nH]cnc1/C=c1\[nH]c(=O)/c(=C/c2cccc(N)c2)[nH]c1=O | 165 | 80.1 | 15.3 | –
CCC(=O)Nc1cccc(/C=c2\[nH]c(=O)/c(=C/c3nc[nH]c3C(C)(C)C)[nH]c2=O)c1 | 2290 | 598 | 243 | –
CC(=O)Nc1cccc(/C=c2\[nH]c(=O)/c(=C/c3nc[nH]c3C(C)(C)C)[nH]c2=O)c1 | 667 | 540 | 238 | –
CC(C)(C)c1[nH]cnc1/C=c1\[nH]c(=O)/c(=C/c2cccc(NC(=O)C3CC3)c2)[nH]c1=O | 2340 | 1570 | 730 | –
CC(C)(C)c1[nH]cnc1/C=c1\[nH]c(=O)/c(=C/c2cccc(NC(=O)c3cccnc3)c2)[nH]c1=O | 4850 | 1600 | 1060 | –
CC(C)(C)c1[nH]cnc1/C=c1\[nH]c(=O)/c(=C/c2ccccc2)[nH]c1=O [PLINABULIN] | 30.9 | 18.4 | 8.8 | Activity [4]: 67%; Activity [5]: Active
CC(C)(C)c1[nH]cnc1/C=c1\[nH]c(=O)/c(=C/c2ccc3[nH]ccc3c2)[nH]c1=O | 223 | 6.7 | 5.9 | –
CC(C)(C)c1[nH]cnc1/C=c1\[nH]c(=O)/c(=C/c2cccc(NC(=O)c3ccccn3)c2)[nH]c1=O | 3850 | 520 | 226 | –
CC(C)(C)C(=O)Nc1cccc(/C=c2\[nH]c(=O)/c(=C/c3nc[nH]c3C(C)(C)C)[nH]c2=O)c1 | 3180 | 1890 | 2880 | –
CC(C)(C)c1[nH]cnc1/C=c1\[nH]c(=O)/c(=C/c2cccc(NC(=O)CN)c2)[nH]c1=O | 843 | 272 | 214 | –
CC(C)(C)c1[nH]cnc1/C=c1\[nH]c(=O)/c(=C/c2cccc3cc[nH]c23)[nH]c1=O | 286 | 9.5 | 390 | –
CC(C)C(=O)Nc1cccc(/C=c2\[nH]c(=O)/c(=C/c3nc[nH]c3C(C)(C)C)[nH]c2=O)c1 | 977 | 1460 | 606 | –
CC(C)(C)c1[nH]cnc1/C=c1\[nH]c(=O)/c(=C/c2c[nH]c3ccccc23)[nH]c1=O | 82.8 | 13.7 | 6.5 | –
CC(C)(C)c1[nH]cnc1/C=c1\[nH]c(=O)/c(=C/c2cccc(NC(=O)c3ccc(F)cc3)c2)[nH]c1=O | 271 | 595 | 123 | –
CC(C)(C)c1[nH]cnc1/C=c1\[nH]c(=O)/c(=C/c2cccc(NC(=O)C3CCCN3)c2)[nH]c1=O (configuration not stated) | 302 | 22.9 | 72.1 | –
CC(C)(C)c1[nH]cnc1/C=c1\[nH]c(=O)/c(=C/c2cccc(NC(=O)C3CCCC3)c2)[nH]c1=O | 743 | 3130 | 643 | –
CC(C)(C)c1[nH]cnc1/C=c1\[nH]c(=O)/c(=C/c2ccc3cc[nH]c3c2)[nH]c1=O | 1840 | 3770 | 2900 | –
CC(C)(C)c1[nH]cnc1/C=c1\[nH]c(=O)/c(=C/c2cccc3[nH]ccc23)[nH]c1=O | 20.9 | 16.7 | 7.3 | Activity [6]: 33.6%; Activity [7]: 37.05%; Activity [8]: 6.15%; fold change (FC) [9]: 6.4; Activity [10]: 2%; fold change (FC) [11]: 3.9; Activity [12]: 4.9%; Activity [13]: 41.45%; Activity [14]: 5.69%; Activity [15]: 41.7%; fold change (FC) [16]: 1.1; Activity [17]: 32.3%; Activity [18]: 2.55%; Activity [4]: 77%; fold change (FC) [19]: 1.4; Activity [5]: Active; Activity [20]: Dose-Dependent Effect; fold change (FC) [21]: 2.7
CC(C)(C)c1[nH]cnc1/C=c1\[nH]c(=O)/c(=C/c2cccc(NC(=O)c3cc4ccccc4[nH]3)c2)[nH]c1=O | > 5000 | 1760 | 2660 | –
